Laboratory results reported in patent publication US8796328B2, “TRPV1 antagonists” (AbbVie Inc., priority 2012, dated 2014).
Like-named read-outs stand apart in the source and are kept apart here.

How the values were obtained:
rats = assay: Rat tail immersion assay (noxious thermosensation, 55° C. water bath); type: in vivo; settings: rat, relative to vehicle
Experimental: Compounds were tested for their effects on noxious thermosensation using the tail immersion assay. Testing was performed one hour following oral administration of 100 μmol/kg of the compound in 10% ethanol/20% Tween-80/70% PEG-400 (2 mL/kg). Mophine (6 mg/kg) was administered interperitoneally (i.p.) using saline (2 mL/kg) as the vehicle. For testing, a circulating water bath was heated to 55° C. Thirty to sixty minutes post dosing, the rats were handled for a few seconds to calm them down and then cupped with their back against the testers hand at a slight angle with head facing away from tester. With rat in one hand and a 0.01 second stopwatch in the other hand, the tail was quickly immersed 6-8 cm in water bath or to a distance leaving 2-3 cm of tail out of water. The timer was started simultaneously. When the rat flinched or attempted withdrawal, timer was immediately stopped and the rat's tail was quickly removed from water bath. This response latency (in seconds) was recorded. Process was repeated 3 times with 3-4 minutes between readings for a final average.
For a given example, a percent increase in the average response latency (in seconds) for tail withdrawal relative to a vehicle control was determined % increase=[(tc−tv)/tv]×100%
tc=response time (in seconds) with oral dosing of compounds
tv=response time (in seconds) with oral dosing of vehicle
The % increases in tail withdrawal latency relative to vehicle control are divided into the following categories: […]

[1] = target: T1, human TRPV1 receptor (hTRPV1) (Homo sapiens (Human), UniProt Q8NER1); assay: Capsaicin activation assay (FLIPR intracellular Ca2+); type: cell-based
T1 sequence (Q8NER1 whole entry): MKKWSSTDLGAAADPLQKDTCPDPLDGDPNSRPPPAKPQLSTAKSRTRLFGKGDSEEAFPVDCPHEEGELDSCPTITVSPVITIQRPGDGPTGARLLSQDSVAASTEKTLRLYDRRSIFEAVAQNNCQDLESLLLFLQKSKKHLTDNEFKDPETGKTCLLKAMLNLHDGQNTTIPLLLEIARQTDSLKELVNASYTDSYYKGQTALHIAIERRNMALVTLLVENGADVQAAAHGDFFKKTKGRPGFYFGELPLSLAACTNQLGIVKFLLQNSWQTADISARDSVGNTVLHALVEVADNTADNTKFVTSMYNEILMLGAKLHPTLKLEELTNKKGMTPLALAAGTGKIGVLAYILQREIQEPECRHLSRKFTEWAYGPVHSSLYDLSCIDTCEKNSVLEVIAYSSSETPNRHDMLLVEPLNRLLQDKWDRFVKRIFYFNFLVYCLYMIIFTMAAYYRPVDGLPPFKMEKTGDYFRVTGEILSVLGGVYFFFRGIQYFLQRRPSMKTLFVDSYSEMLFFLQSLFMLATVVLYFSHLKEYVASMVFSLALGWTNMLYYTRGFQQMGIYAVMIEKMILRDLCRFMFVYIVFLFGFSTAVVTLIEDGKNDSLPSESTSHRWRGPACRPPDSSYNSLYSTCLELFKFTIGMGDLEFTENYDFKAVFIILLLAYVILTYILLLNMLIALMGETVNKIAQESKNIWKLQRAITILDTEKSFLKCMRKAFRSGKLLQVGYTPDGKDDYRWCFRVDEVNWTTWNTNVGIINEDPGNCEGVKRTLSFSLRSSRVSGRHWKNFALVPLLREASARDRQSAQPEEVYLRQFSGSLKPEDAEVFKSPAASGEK
Method in brief: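 Recombinant HEK293 cells stably expressing hTRPV1, Calcium-4 dye loaded 90–120 min at room temperature, were preincubated with compound (12-point, one-third-log) for 3 min before capsaicin challenge. Peak FLIPR fluorescence minus baseline was normalised to capsaicin control response; IC50 from four-parameter logistic fit.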

[2] = target: T1, human TRPV1 receptor (hTRPV1); assay: Acid activation assay (pH 5.0, FLIPR intracellular Ca2+); type: cell-based; settings: 37.5 μM compound; for human TRPV1 H+ (max % remain): Table 2, percentage of maximal pH 5.0-induced response
[3] = oral 100 μmol/kg, one hour post dosing

Structure (SMILES) | % Increase in Tail Withdrawal Latency (rats; [3]) | human TRPV1 H+ (max % remain) [2] [%] | further results
CC(C)(C)c1ccc2c(c1)CC[C@H]2NC(=O)Nc1cccc2[nH]cnc12 [C, reference compound] | +++ (greater than or equal to 25% increase) | 1 | IC50 ([1]; Table 2, capsaicin-induced intracellular Ca2+ increase, read-out: human TRPV1 capsaicin IC50): 0.035 µM
CC(C)(C)c1ccc(Nc2ncnc3cc(-c4ncccc4C(F)(F)F)ccc23)cc1 [B, reference compound] | +++ (greater than or equal to 25% increase) | 1 | 
Cc1nc(Nc2cccc3c2C[C@H](O)CC3)oc1-c1ccc(C(F)(F)F)cc1 [D, reference compound] | +++ (greater than or equal to 25% increase) | 3 | 
CN1CC[C@]23c4c5ccc(O)c4O[C@H]2[C@@H](O)C=C[C@H]3[C@H]1C5 [Morphine] |  |  | % Increase in Tail Withdrawal Latency (rats; morphine 6 mg/kg i.p. in saline): +++ (greater than or equal to 25% increase)
Cc1cccnc1N1CC=C(C(=O)Nc2ccc(S(=O)(=O)C(F)(F)F)cc2)CC1 [E, reference compound] | +++ (greater than or equal to 25% increase) | 2 | 
CC(=O)Nc1nc2c(Oc3cc(-c4ccc(C(F)(F)F)cc4)ncn3)cccc2s1 [A, reference compound] | +++ (greater than or equal to 25% increase) | 10 | 
CS(=O)(=O)Nc1ccc(CNC(=O)N[C@@H]2CC(CF)(CF)Oc3cc(F)ccc32)cc1F [Example 43, N-{2-fluoro-4-[({[(4R)-7-fluoro-2,2-bis(fluoromethyl)-3,4-dihydro-2H-chromen-4-yl]carbamoyl}amino)methyl]phenyl}methanesulfonamide] |  |  | IC50 ([1]; inhibition of capsaicin-induced intracellular Ca2+ increase, compounds added 3 minutes prior to capsaicin, read-out: hTRPV1 cap. IC50): 6.41 µM; remaining activity at 37.5 µM ([2]; percentage of the maximal pH 5.0-induced response remaining, read-out: hTRPV1 H+ (max % remain)): 43%
